The results in this text go back to ChEMBL document CHEMBL2440115, “Discovery and characterization of synthetic 4'-hydroxyflavones-New CK2 inhibitors from flavone family” (Bioorg Med Chem, 2013).

For one assay, the target named is Casein kinase II (Homo sapiens, UniProt P19784+P67870+P68400). The assay is described as follows: Inhibition of recombinant human CK2 using RRRDDDSDDD as substrate after 20 mins by beta counting analysis in presence of [gamma-labeled 32P]ATP. The format is protein-complex assay.
Sequence of Casein kinase II (P67870 whole entry): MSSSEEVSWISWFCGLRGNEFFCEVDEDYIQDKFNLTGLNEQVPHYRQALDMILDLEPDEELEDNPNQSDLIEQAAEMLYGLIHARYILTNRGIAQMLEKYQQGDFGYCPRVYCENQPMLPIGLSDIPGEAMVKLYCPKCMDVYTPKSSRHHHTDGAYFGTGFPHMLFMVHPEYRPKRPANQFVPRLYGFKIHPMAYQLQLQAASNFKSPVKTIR
Sequence of Casein kinase II (P68400 whole entry): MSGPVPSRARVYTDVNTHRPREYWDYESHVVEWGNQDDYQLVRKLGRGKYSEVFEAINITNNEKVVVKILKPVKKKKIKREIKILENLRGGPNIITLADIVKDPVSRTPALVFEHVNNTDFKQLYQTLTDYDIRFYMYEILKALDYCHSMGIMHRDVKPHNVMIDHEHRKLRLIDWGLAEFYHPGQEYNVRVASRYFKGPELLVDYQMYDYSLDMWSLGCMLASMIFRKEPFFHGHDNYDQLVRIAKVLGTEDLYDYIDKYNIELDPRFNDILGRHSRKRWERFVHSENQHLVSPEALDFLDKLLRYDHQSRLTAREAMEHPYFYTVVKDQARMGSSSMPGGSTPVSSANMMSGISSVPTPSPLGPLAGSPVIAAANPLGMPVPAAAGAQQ
Sequence of Casein kinase II (P19784 whole entry): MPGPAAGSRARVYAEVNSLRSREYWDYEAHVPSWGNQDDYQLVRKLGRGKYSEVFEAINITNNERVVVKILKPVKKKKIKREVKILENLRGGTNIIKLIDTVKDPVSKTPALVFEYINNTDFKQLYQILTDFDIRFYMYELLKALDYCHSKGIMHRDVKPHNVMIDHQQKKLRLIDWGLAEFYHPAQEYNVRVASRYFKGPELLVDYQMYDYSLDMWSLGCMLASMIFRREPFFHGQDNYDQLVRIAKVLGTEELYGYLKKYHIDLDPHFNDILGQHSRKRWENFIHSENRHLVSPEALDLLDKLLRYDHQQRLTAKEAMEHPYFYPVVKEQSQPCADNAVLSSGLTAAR
Assay [1] has as its target Casein kinase II (Homo sapiens) (UniProt P67870+P68400+P19784). As to the kind of experiment: Inhibition of recombinant human CK2 using RRRDDDSDDD as substrate assessed as residual activity at 10 uM after 20 mins by beta counting analysis in presence of [gamma-labeled 32P]ATP relative to control. The format is protein-complex assay.

For `COc1ccc(-c2cc(=O)c3cc(OC(C)=O)ccc3o2)cc1`, on Casein kinase II, the IC50 is above 30 µM. For the same compound, the Activity in assay [1] came to 89%.

As to `COc1ccc(-c2oc3cc(C)cc(C)c3c(=O)c2OC(=O)C2COc3ccccc3O2)cc1` (stereo not drawn), the IC50 at Casein kinase II was 21 µM. The Activity in assay [1] was 37%.

On to `Cc1ccc(-c2oc3c(C)cc(C)cc3c(=O)c2OCC(=O)O)cc1`, for which, at Casein kinase II, the IC50 is 28 µM. Besides, the Activity in assay [1] was 50%.

Consider `COc1ccc(-c2oc3ccccc3c(=O)c2O)cc1OC` [3-HYDROXY-3',4'-DIMETHOXYFLAVONE], for which the IC50 on Casein kinase II is above 30 µM. Further, the Activity in assay [1] stood at 66%.

For `Cc1ccc2oc(-c3ccc(C(C)C)cc3)c(O)c(=O)c2c1`, at Casein kinase II, the IC50 was 26 µM. Further, the Activity in assay [1] worked out at 39%.

Turning to `Cc1ccc2oc(-c3ccc(Cl)cc3)c(O)c(=O)c2c1`, the IC50 on Casein kinase II is 23 µM. Also, the Activity in assay [1] turned out to be 38%.

As to `COc1ccc(-c2cc(=O)c3c(CN(C)Cc4ccccc4)c(O)ccc3o2)cc1`, the IC50 at Casein kinase II was above 30 µM. Besides, the Activity in assay [1] is 73%.

With `COc1cc(-c2cc(=O)c3c(CN4CCCCC4)c(O)ccc3o2)cc(OC)c1OC`, the IC50 at Casein kinase II was above 30 µM. Moreover, in assay [1], the Activity turned out to be 74%.

In the case of `COc1ccc(-c2oc3ccccc3c(=O)c2OC)cc1OC`, the IC50 on Casein kinase II was above 30 µM. Further, in assay [1], the Activity turned out to be 66%.

For the compound `COc1ccc(-c2cc(=O)c3cc(C)ccc3o2)cc1`, the IC50 at Casein kinase II is above 30 µM. Also, in assay [1], the Activity stood at 73%.

Consider `Cc1ccc2oc(-c3ccccc3)c(OCC(=O)N3CCOCC3)c(=O)c2c1`, for which the IC50 at Casein kinase II is above 30 µM. In addition, in assay [1], the Activity was found to be 95%.

`COc1ccc(-c2cc(=O)c3cc(O)ccc3o2)cc1`: at Casein kinase II, the IC50 amounted to 30 µM. For the same compound, the Activity in assay [1] was found to be 49%.

`Cc1ccc2oc(-c3cc(Br)ccc3O)c(O)c(=O)c2c1`: the IC50 at Casein kinase II stood at 28 µM. Also, the Activity in assay [1] came out at 45%.

For `COc1cc(-c2oc3ccc(C)cc3c(=O)c2O)cc(OC)c1OC`, on Casein kinase II, the IC50 is above 30 µM. The Activity in assay [1] was 65%.

Regarding `COc1ccc(-c2oc3ccc(C)cc3c(=O)c2O)cc1OC`, the IC50 at Casein kinase II was above 30 µM. In addition, the Activity in assay [1] came to 64%.

For `COc1ccc(-c2cc(=O)c3cc(C)ccc3o2)cc1OC`, the IC50 on Casein kinase II is above 30 µM. The Activity in assay [1] worked out at 81%.

Regarding `COc1ccc(-c2oc3ccccc3c(=O)c2O)cc1`, at Casein kinase II, the IC50 was above 30 µM. The Activity in assay [1] was found to be 86%.

On to `COc1ccc(-c2cc(=O)c3c4c(ccc3o2)OCN(Cc2ccco2)C4)cc1`, for which the IC50 at Casein kinase II stood at 12 µM. Also, the Activity in assay [1] was 17%.

Regarding `CN(C)c1ccc(-c2oc3ccccc3c(=O)c2O)cc1`, on Casein kinase II, the IC50 was above 30 µM. Moreover, the Activity in assay [1] is 73%.

With `COc1cc(-c2cc(=O)c3cc(C)ccc3o2)cc(OC)c1OC`, the concentration for half-maximal inhibition (IC50) at Casein kinase II is above 30 µM. The Activity in assay [1] stood at 92%.

For `COc1cc(-c2cc(=O)c3c(CN(C)Cc4ccccc4)c(O)ccc3o2)cc(OC)c1OC`, at Casein kinase II, the IC50 was above 30 µM. For the same compound, in assay [1], the Activity was found to be 73%.

Take `Cc1ccc2oc(-c3ccc(F)cc3)c(O)c(=O)c2c1`: at Casein kinase II, the IC50 was above 30 µM. Moreover, the Activity in assay [1] stood at 60%.

Turning to `O=c1cc(-c2cccc(Br)c2)oc2ccc(O)cc12`, the IC50 at Casein kinase II was determined as 19 µM. For the same compound, the Activity in assay [1] is 29%.

Regarding `Cc1ccc2oc(-c3ccccc3)c(O)c(=O)c2c1`, on Casein kinase II, the IC50 was above 30 µM. For the same compound, the Activity in assay [1] was 80%.

Regarding `COc1ccc(-c2oc3ccccc3c(=O)c2OC(C)=O)cc1`, on Casein kinase II, the IC50 is above 30 µM. Further, the Activity in assay [1] is 68%.

Take `CCOc1cc(-c2cc(=O)c3ccccc3o2)ccc1O`: the IC50 on Casein kinase II worked out at 7.5 µM. Besides, in assay [1], the Activity amounted to 21%.

For the compound `Cc1ccc2oc(-c3ccc(Br)cc3)c(O)c(=O)c2c1`, the IC50 at Casein kinase II was above 30 µM. Besides, in assay [1], the Activity turned out to be 65%.

With `Cc1ccc(-c2oc3ccc(C)cc3c(=O)c2O)cc1`, the IC50 on Casein kinase II is above 30 µM. In addition, in assay [1], the Activity worked out at 56%.

Turning to `Cc1ccc(-c2oc3ccccc3c(=O)c2OCC(=O)N2CCOCC2)cc1`, the IC50 at Casein kinase II is above 30 µM. In assay [1], the Activity worked out at 97%.
